Experimental data published in patent publication US20080047904A1, “Treatment for Hydrostatic Testing Water” (priority 2004, published 2008).

How the values were obtained:
[1] = tested on: Medinia beryllina larvae; assay: 48-hour acute LC50 assay, static renewal; format: in vivo
Protocol: (§1) The test concentrations were prepared daily, and used immediately for test initiation and renewal. The total residual chlorine was measured in the highest concentration tested for each sample. The measured chlorine concentrations were used to calculate the estimated chlorine concentrations at the lower sample dilutions in these tests. Both range finder and definitive assays were conducted.
(§2) A second set of experiments were conducted to mimic aged treated seawater. This attempted to model water that had been held in a pipeline for 24 hours, and then discharged. The experiments were identical to those described in the preceding paragraph, except that the highest test concentrations were prepared 24 hours before exposure to the test organisms. These same solutions were then used to prepare the 24 hour static renewal concentrations. The residual chlorine concentrations were measured when the test organisms were initially exposed to the toxic insult. These measurement were used to calculate the estimated chlorine concentrations at the lower sample dilutions in these tests, and after the static renewal at 24 hours.

[2] = tested on: Mysidopsis bahia juveniles; assay: 48-hour acute LC50 assay, static renewal; format: in vivo
Protocol: as §1, §2

[3] = Reversion of phosphonate to orthophosphate by oxidizing biocides; format: physicochemical; conditions: 10 ppm oxidant (as Cl2) dosed, pH 9.1, 23° C.
Protocol: The biocides studied consisted of WELLGUARD® 7030, bleach (NaOCl), and activated sodium bromide (NaOCl and NaBr). The WELLGUARD® 7030 and bleach were added directly. Activated sodium bromide was prepared in situ by introducing 20 ppm bromide ion to the stock solution followed by addition of bleach. The phosphonates used in this work consisted of AMP (aminomethylene phosphonic acid), HEDP (hydroxyethylidene diphosphonic acid), and PBTC (phosphonobutanetricarboxylic acid). These materials were commercial samples (Mayoquest 1320, 1500, and 2100, respectively) obtained from Callaway Chemical Co. (Smyrna, Ga.).
Solutions consisting of 5 ppm scale inhibitor (as active phosphonate) in the presence of 10 ppm oxidant (as Cl2) were prepared as follows. To 900 mL deionized water were added appropriate stock solutions containing phosphonate, alkalinity (NaHCO3), and calcium hardness (CaCl2). The pH was adjusted to 9.1 with 5% aq. NaOH and diluted up to 1 L in a dark amber bottle. A dose of oxidant was added to achieve a residual of 10 ppm. The solutions were then periodically monitored for phosphonate reversion by determining the reversion to orthophosphate (Hach method 490). The oxidant residual was also periodically monitored using the DPD method (Hach method 80). All of this work was performed at room temperature (23° C.). […]

[4] = aged: highest test concentrations prepared 24 hours before exposure
[5] = fresh test solutions, static renewal at 24 hours

SMILES: [Na+].[O-]Cl [Bleach, NaOCl]
- 48-hour acute LC50 [1, 4]: 0.50 ppm as Cl2
- 48-hour acute LC50 [1, 5]: 0.57 ppm as Cl2
- 48-hour acute LC50 [2, 4]: 0.42 ppm as Cl2
- 48-hour acute LC50 [2, 5]: 0.34 ppm as Cl2
- Cl2 (oxidant residual) ([3]; 5 ppm AMP, 460 minutes): 9.4 ppm
- Cl2 (oxidant residual) ([3]; 5 ppm HEDP, 400 minutes): 10.6 ppm
